The results in this text go back to ChEMBL document CHEMBL1201862, “PubChem BioAssay data set” (2004).

Holding throughout (assay): NCI anticancer screen, dose series, 48 h
In assay [1] the test system is NCI-H226.
The subject of assay [2] is LOX IMVI.
Assay [3] deals with HCT-15.
Assay [4] concerns HT-29.
Assay [5] deals with MDA-N.
The test system of assay [6] is OVCAR-8.
For assay [7], the system named is OVCAR-3.
For assay [8], the system named is U-251.
The test system of assay [9] is K562.
Assay [10] deals with RPMI-8226.
The test system of assay [11] is NCI/ADR-RES.
The subject of assay [12] is MOLT-4.
The test system of assay [13] is TK-10.
Assay [14] concerns HCC 2998.
Assay [15] relates to SR.
Assay [16] concerns SN12C.
The test system of assay [17] is IGROV-1.
Assay [18] deals with SNB-19.
Assay [19] concerns Malme-3M.
Assay [20] relates to CCRF-CEM.

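Interpolation was linear, between the two tested concentrations surrounding the appropriate level; five concentrations were tested over 48 hours in 96-well plates. GI50: concentration for 50% inhibition of growth.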 Activity calls are given as the source filed them. Cut-off read from the data, not from the text of the source: active = GI50 up to about 1.1 µM and inactive = higher. Where only a bound is given, the exact number is not on record here.

Take `CC(C)NCC(O)c1ccc(O)c2ncccc12` (stereo not given): the GI50 in [1] is > 100 µM (inactive); in assay [2] it was 30.3 µM (inactive); in [3], 25.9 µM; in [4], 36.4 µM (inactive); in [5] it was 91.2 µM (inactive); in assay [6], 33.3 µM (inactive). Also, the GI50 was 16 µM (inactive) in [7]; 31.5 µM (inactive) in assay [8]; 19.5 µM (inactive) in assay [9]; 49.1 µM (inactive) in [10]; 27.7 µM (inactive) in [11]; 18.2 µM (inactive) in [12]. Moreover, the GI50 in assay [13] is 47.3 µM (inactive); in [14], 46 µM (inactive); in [15], 25.4 µM (inactive); in assay [16] it was 30.3 µM (inactive); in assay [17], 33.5 µM (inactive); in assay [18], > 100 µM (inactive).

For `COc1cc(/C=N/c2nc3cc4sc(/N=C/c5cc(OC)c(OC)c(OC)c5)nc4cc3s2)cc(OC)c1OC`, the GI50 was 31.4 µM (inactive) in [1]; > 100 µM (inactive) in [19]; 42.9 µM (inactive) in [2]; 55.2 µM in assay [3]; 52.7 µM (inactive) in assay [4]; 27 µM (inactive) in [5]. The GI50 in assay [6] was 95.5 µM (inactive); in assay [7], 32.7 µM (inactive); in assay [8], 46.1 µM (inactive); in assay [9], 50.1 µM (inactive); in [10], 51.2 µM (inactive); in [11], 34.1 µM (inactive). For the same molecule, the GI50 in assay [12] is 31.3 µM (inactive); in assay [13] it was > 100 µM (inactive); in assay [14], > 100 µM (inactive); in [15] it was 21.7 µM (inactive); in [16], 43 µM (inactive); in assay [17], > 100 µM (inactive). Moreover, the GI50 in assay [18] was > 100 µM (inactive).

As for `S=C(S)NCCN1CCNCC1`, the GI50 in assay [1] is > 100 µM (inactive); in [19], 25.4 µM (inactive); in assay [2], 40.1 µM (inactive); in assay [3], 47.8 µM; in assay [4], 59.7 µM (inactive); in assay [5] it was 37.2 µM (inactive). Moreover, the GI50 is 28.9 µM (inactive) in [6]; 22.4 µM (inactive) in assay [7]; 21.1 µM (inactive) in assay [20]; > 100 µM (inactive) in assay [8]; 24.4 µM (inactive) in assay [9]; 18.6 µM (inactive) in [10]. Moreover, the GI50 in assay [11] is > 100 µM (inactive); in assay [13], 20.8 µM (inactive); in [14] it was 22.7 µM (inactive); in assay [15], 24.5 µM (inactive); in [16], 49.2 µM (inactive); in assay [17] it was 49.5 µM (inactive). Further, in assay [18], the GI50 is > 100 µM (inactive).

On to `CNC(=S)NN=C1NCCCCN1`, for which the GI50 is > 100 µM (inactive) in [1]; > 100 µM (inactive) in assay [19]; > 100 µM (inactive) in [2]; > 100 µM in [3]; > 100 µM (inactive) in assay [4]; > 100 µM (inactive) in [5]. For the same molecule, the GI50 in [6], in assay [7], in assay [20], in assay [8], in assay [9] and in assay [10] was > 100 µM (inactive) each time. Also, the GI50 in assay [11], in [12], in assay [13], in [14], in [15] and in [17] was > 100 µM (inactive) each time. In addition, the GI50 in [18] is > 100 µM (inactive).

On to `O=C(c1ccccc1)c1ccc2[nH]c(-c3c(Cl)c(Cl)c(Cl)c(Cl)c3-c3nnc(-c4ccccc4)o3)nc2c1`, for which the GI50 in assay [1] was 22.8 µM (inactive); in assay [19], 17.9 µM (inactive); in assay [2] it was 39.4 µM (inactive); in assay [3], 7.01 µM; in assay [4] it was 31.3 µM (inactive); in [5], 3.45 µM (inactive). The GI50 was 58.1 µM (inactive) in assay [6]; 13.8 µM (inactive) in assay [7]; 46.3 µM (inactive) in [20]; 31.6 µM (inactive) in assay [8]; 4.67 µM (inactive) in [9]; 12.4 µM (inactive) in assay [10]. The GI50 in assay [11] was 13.2 µM (inactive); in [12], 14.8 µM (inactive); in assay [13], 51.1 µM (inactive); in assay [15], 4.06 µM (inactive); in assay [16], 22.4 µM (inactive); in [17], 29.5 µM (inactive). In addition, the GI50 in assay [18] was 56.9 µM (inactive).

Turning to `C=C(C)C12CC(COC(=O)c3ccccc3)C34OC5(OC1C3C1OC1(CO)C(O)C1(O)C(OC(=O)c3ccccc3)C(C)C(C(C)CCCCCCC5O)C14)O2` (stereo not given), the GI50 in [1] was 40.7 µM (inactive); in assay [19], 25.2 µM (inactive); in assay [2], 66.5 µM (inactive); in [3] it was 54 µM; in assay [4], 19.5 µM (inactive); in assay [5], 25.9 µM (inactive). Further, the GI50 in assay [6] was 60.4 µM (inactive); in [7] it was 63 µM (inactive); in assay [20], 26.4 µM (inactive); in assay [8] it was 32.6 µM (inactive); in assay [9], < 0.01 µM (active); in [10], 18.8 µM (inactive). The GI50 in assay [11] is 42.4 µM (inactive); in [13], < 0.01 µM (active); in assay [14] it was < 0.01 µM (active); in assay [15] it was 18.5 µM (inactive); in assay [16], 37.8 µM (inactive); in assay [17], > 72.8 µM (inactive). In addition, the GI50 in [18] was > 100 µM (inactive).

Take `CC(=O)Nc1ccc(C(O)/C(=N/N)c2nc3ccc(Cl)cc3nc2O)cc1` (stereo not given): the GI50 in assay [1] was > 100 µM (inactive); in [19], > 100 µM (inactive); in assay [2], > 100 µM (inactive); in assay [3], > 100 µM; in assay [4], > 100 µM (inactive); in assay [5], > 100 µM (inactive). For the same molecule, the GI50 in [6], in assay [7], in [20], in assay [8], in assay [11] and in assay [12] was > 100 µM (inactive) each time. Also, the GI50 in assay [13], in [14], in [15], in assay [16], in [17] and in assay [18] was > 100 µM (inactive) each time.

For `C[C@H](CCC(=O)O)[C@H]1CC[C@H]2[C@@H]3[C@H](O)C[C@@H]4C[C@H](O)CC[C@]4(C)[C@H]3CC[C@]12C` [CHENODIOL], the GI50 in assay [1] is 22.2 µM (inactive); in assay [19], 32.2 µM (inactive); in assay [2] it was 32.5 µM (inactive); in assay [3], 32.1 µM; in assay [4], 24.3 µM (inactive); in assay [5] it was 37.7 µM (inactive). For the same molecule, the GI50 in [6] was 12.1 µM (inactive); in [20], 33.1 µM (inactive); in [8] it was 37.6 µM (inactive); in assay [9], 35.6 µM (inactive); in assay [10] it was 22.6 µM (inactive); in [11], 36.6 µM (inactive). For the same molecule, the GI50 in assay [12] was 24.7 µM (inactive); in assay [13] it was 26.2 µM (inactive); in assay [14], 28.9 µM (inactive); in assay [15] it was 14.6 µM (inactive); in [16] it was 43.2 µM (inactive); in assay [17], 27 µM (inactive). In addition, the GI50 in assay [18] was 43.8 µM (inactive).

`O=C(C(Cl)=C(N1CCCCC1)N1CCCCC1)C(Cl)Cl`: the GI50 was > 100 µM (inactive) in [1]; > 100 µM (inactive) in assay [19]; > 100 µM (inactive) in assay [2]; > 100 µM in assay [3]; > 100 µM (inactive) in assay [4]; > 100 µM (inactive) in assay [5]. In addition, the GI50 in assay [6], in [7], in assay [20], in assay [9], in assay [10] and in assay [11] was > 100 µM (inactive) throughout. The GI50 in [12], in assay [13], in assay [14], in [15], in assay [16] and in [17] was > 100 µM (inactive) each time. In addition, the GI50 in [18] is > 100 µM (inactive).

As for `CCN(CC)CC1CN=C(N)O1` (stereo not given), the GI50 in assay [1] is > 100 µM (inactive); in assay [2] it was > 100 µM (inactive); in assay [3], > 100 µM; in assay [5], > 100 µM (inactive); in assay [6] it was > 100 µM (inactive); in assay [7], > 100 µM (inactive). In addition, the GI50 in [20], in assay [8], in assay [9], in [10], in [11] and in assay [12] was > 100 µM (inactive) in each case. In addition, the GI50 in assay [14], in assay [15], in [16], in assay [17] and in assay [18] was > 100 µM (inactive) throughout.

As for `NC(Cc1nnn[nH]1)C(=O)O` (stereo not given), the GI50 in assay [1] is > 100 µM (inactive); in assay [19], > 100 µM (inactive); in assay [2], > 100 µM (inactive); in [3] it was > 100 µM; in assay [4] it was > 100 µM (inactive); in [5], > 100 µM (inactive). The GI50 in assay [6], in assay [7], in [20], in assay [8], in [9] and in [10] was > 100 µM (inactive) throughout. The GI50 in assay [11], in assay [12], in assay [13], in [15], in assay [16] and in assay [17] was > 100 µM (inactive) throughout. Further, the GI50 in assay [18] is > 100 µM (inactive).
